# Structures can show the parent of a compound that is named as a salt. Where two headings read alike, the source gives them in different places.
# Assays:
# [1] = spectrophotometric analysis at 228 nm before and after filtration via a 0.22 micron filter (Example 12); assay type: physicochemical; conditions: at 18 mg/ml in 70% ethanol
# Experimental: A UV-VIS Genesys 10S Thermo Scientific spectrophotometer was used for the assay. Samples were placed in a UV Kurette Halbmicro/UV Cuvette semi micro [Cat no: 759150] for reading.
# Because the reference describes measurements at μg/ml concentrations, both the filtered and unfiltered 18 mg/ml solutions were diluted to 9 μg/ml and 12.5 μg/ml and measured again.
# [2] = solubility of sildenafil citrate in EtOH/water mixtures with and without acetone (Example 1); assay type: physicochemical; conditions: Table 1; sildenafil citrate remaining in solution after heating
# [3] = cited from earlier work
# [4] = tablets or oral suspension; cited from earlier work
# [5] = EMEA CHMP Assessment Report For Vizarsin
# [6] = Jordanian Pharmaceutical Manufacturing Co.
smiles,measurement,setting,value
CCCc1nn(C)c2c(=O)[nH]c(-c3cc(S(=O)(=O)N4CCN(C)CC4)ccc3OCC)nc12 [sildenafil citrate],solubility as prepared in Example 1,[1],fully soluble
same,Final conc. (After heating),[2],≤ 35.7 mg/mL
same,solubility in acetone,[3]; [5],insoluble
same,solubility in chloroform,[3]; [5],insoluble
same,solubility in dimethylsulfoxide (DMSO),[3]; [5],soluble
same,solubility in ethanol,[3]; [5],insoluble
same,solubility in methanol,[3]; [5],soluble
same,solubility in ethanol,[3]; [6],~1000 µg/mL
same,times less soluble in ethanol than in water,[3]; [6],about 3.5 times
same,absolute bioavailability,[4],about 41%
